In BindingDB's records for doi:10.1021/jm0499108 (University of Michigan, 2004):

Molecular target: T1, E3 ubiquitin-protein ligase XIAP [241-356] (Homo sapiens, UniProt P98170)
T1 construct: 241-356
Experiment: Fluorescence Polarization Competitive Binding Assay
Settings: pH 7.5; 22 °C
Procedure: A quantitative in vitro binding assay using the fluorescence polarization (FP) based method was developed and used to determine the binding affinity of Smac mimetics to XIAP protein. The polarization values were measured after 3 hrs of incubation when the binding reached equilibrium. […] Curve fitting was performed using Prism ([sequence]). The binding affinity (Ki) of tested compound was calculated using the equation developed for computing the Ki value in FP-based binding assays.

T1 sequence (P98170 241-356): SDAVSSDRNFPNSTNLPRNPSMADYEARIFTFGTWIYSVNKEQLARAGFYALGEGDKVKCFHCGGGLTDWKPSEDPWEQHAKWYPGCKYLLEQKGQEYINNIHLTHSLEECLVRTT

C[C@H](N)C(=O)N[C@H]1CC[C@H]2CC[C@@H](C(=O)Nc3ccccc3)N2C1=O [(3S,6S,8aS)-6-[(2S)-2-aminopropanamido]-5-oxo-N-phenyl-octahydroindolizine-3-carboxamide]
Ki: > 100 µM
